# Strand notation (5' to 3'): a small letter for the sugar, then the base; units joined by * are phosphorothioate-linked, units joined directly phosphodiester-linked; [ ] holds rarer units or linkages, { } end groups; capitals alone tell only the bases. e = 2'-O-(2-methoxyethyl) (MOE); k = constrained ethyl (cEt); [5mC] = 5-methylcytosine; d = 2'-deoxy (DNA); m = 2'-O-methyl
# System: Yap1 mRNA
# Test: Antisense inhibition of human Yap1 in SNU-449 cells by modified oligonucleotides, single dose (Example 5, RTS36584)
# Assay type: cell-based
# Procedure, shortened: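 Values are % of untreated control: Yap1 mRNA by quantitative RT-PCR (RTS36584), normalized to RIBOGREEN total RNA. Oligonucleotides were dosed at 2,000 nM, free uptake, in SNU-449 cells, with roughly 48 h exposure before RNA isolation.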
# [1] = Table 40 (separate experiment), SNU-449 cells, 10,000 cells per well, free uptake, 2,000 nM oligonucleotide, approx. 48 hours, RTS36584, normalized to RIBOGREEN, Yap1 mRNA relative to untreated control
# [2] = Table 49, Yap1 mRNA level relative to untreated control, modified oligonucleotides targeting SEQ ID NO.: 1 and 2
# [3] = Table 46, Yap1 mRNA as percent of untreated control, SNU-449 cells, single dose
# [4] = Table 48, Yap1 mRNA level relative to untreated control, modified oligonucleotides targeting SEQ ID NO.: 1 and 2
# [5] = Table 52, Yap1 mRNA, modified oligonucleotides targeting SEQ ID NO: 1 and 2
# [6] = Table 44 experiment, SNU-449 cells, 10,000 cells per well, free uptake, 2,000 nM, approximately 48 hours, RTS36584, Yap1 mRNA normalized to RIBOGREEN, relative to untreated control cells
# [7] = Yap1 mRNA, percent of untreated control, modified oligonucleotides targeting SEQ ID NO: 1 and 2, Table 47
# [8] = Table 51, Yap1 mRNA remaining as percent of untreated control (UT), SNU-449 cells, single dose
# [9] = Table 41, SNU-449 cells, 10,000 cells per well, free uptake, 2,000 nM modified oligonucleotide, approximately 48 hours, RTS36584, normalized to RIBOGREEN, Yap1 mRNA relative to untreated control cells
# [10] = Table 43 experiment, SNU-449 cells, 10,000 cells per well, free uptake, 2,000 nM, approximately 48 hours, RTS36584, Yap1 mRNA normalized to RIBOGREEN, relative to untreated control cells
# [11] = Table 45, Yap1 mRNA as percent of untreated control, SNU-449 cells, single dose
# [12] = Table 39, SNU-449 cells, 10,000 cells per well, free uptake, 2,000 nM oligonucleotide, approx. 48 hours, RTS36584, normalized to RIBOGREEN, Yap1 mRNA relative to untreated control
substance,measurement,setting,value
1198729 (kA*eT*kA*dT*dT*dA*dG*dA*dG*dT*dA*dT*eG*eT*kG*kG; antisense) [Compound 1198729],YAP1 (% UTC),[1],21 % UTC
1198569 (antisense CACTTTTACATTAGGA; chemistry not fully specified) [Compound 1198569],YAP1 (% UT),[2],14 % UT
1198837 (kT*kT*dG*dG*dA*dA*dG*dA*dT*d[5mC]*dT*kG*eA*kA*eA*k[5mC]; antisense) [Compound 1198837],YAP1 (% UT),[3],66 % UT
1197213 (antisense kT*kG*kT*dA*dT*dG*dT*d[5mC]*dA*dG*dA*dA*dG*kA*kG*kT) [Compound 1197213],YAP1 (% UT),[4],5 % UT
1200856 (kT*kG*kT*dA*dT*mG*dT*d[5mC]*dA*dG*dA*dA*dG*kA*kG*kT; antisense) [Compound 1200856],YAP1 (% UT),[5],29 % UT
1198426 (kA*dA*d[5mC]*dT*d[5mC]*dT*dT*dA*dT*dA*dT*kG*eG*kT*eT*kT; antisense) [Compound 1198426],YAP1 (% UTC),[1],111 % UTC
1198486 (antisense kA*kA*dG*d[5mC]*dA*d[5mC]*dT*dT*dT*dT*dA*e[5mC]*kA*eT*kT*eA) [Compound 1198486],YAP1 (% UTC),[6],39 % UTC
1197223 (antisense kT*kA*kA*dG*dT*dA*dA*dG*dG*dT*dT*dT*d[5mC]*k[5mC]*k[5mC]*kA) [Compound 1197223],YAP1 (% UT),[7],11 % UT
1200804 (kA*kG*kG*dT*dA*mU*dA*dA*d[5mC]*dT*dG*dG*dG*k[5mC]*kA*kA; antisense) [Compound 1200804],YAP1 (% UT),[5],44 % UT
1198526 (kA*kA*dG*dT*dG*dT*dA*dT*dG*dT*d[5mC]*eA*kG*eA*kA*eG; antisense) [Compound 1198526],YAP1 (% UTC),[6],2 % UTC
1197266 (kT*kG*kT*dA*mA*dT*dA*dT*dT*dG*d[5mC]*dA*dA*kT*k[5mC]*kT) [Compound 1197266],YAP1 (% UT),[8],31 % UT
"1198740 (AACACTGAGGTATAAC; all C 5-methyl, sugars by position and backbone not given here; position 2 notation garbled, mixed cEt/MOE/deoxy gapmer) [Compound 1198740]",YAP1 (% UTC),[9],39 % UTC
1197200 (antisense kT*kT*kA*dT*dA*dT*dG*dG*dT*dT*dT*dT*dG*kT*kG*kT) [Compound 1197200],YAP1 (% UT),[4],49 % UT
1198440 (kA*dA*dG*dT*dG*dT*dA*dT*dG*dT*d[5mC]*kA*eG*kA*eA*kG) [Compound 1198440],YAP1 (% UTC),[1],5 % UTC
1198770 (k[5mC]*eT*kT*dA*dT*dA*dT*dG*dG*dT*dT*dT*eT*eG*kT*kG; antisense) [Compound 1198770],YAP1 (% UTC),[9],40 % UTC
1198332 (kT*k[5mC]*kA*dG*dA*dT*dT*dT*dA*dG*dG*dA*kT*eG*k[5mC]*eA; antisense) [Compound 1198332],YAP1 (% UT),[4],58 % UT
1197191 (antisense kA*kG*kT*dG*d[5mC]*dT*dT*dT*dG*dG*dA*dA*dG*kA*kT*k[5mC]) [Compound 1197191],YAP1 (% UT),[7],40 % UT
1200845 (k[5mC]*kA*kA*d[5mC]*dT*mC*dT*dT*dA*dT*dA*dT*dG*kG*kT*kT; antisense) [Compound 1200845],YAP1 (% UT),[5],100 % UT
119825 4 (kA*kA*d[5mC]*dT*d[5mC]*dT*dT*dA*dT*dA*dT*eG*eG*eT*kT*kT; antisense),YAP1 (% UTC),[10],95 % UTC
1198541 (antisense kT*kT*dA*dG*dA*d[5mC]*dT*dA*dA*dG*dT*eA*kA*eG*kG*eT) [Compound 1198541],YAP1 (% UTC),[6],34 % UTC
1198951 (kA*kA*dT*dA*dT*dT*dG*d[5mC]*dA*dA*dT*k[5mC]*dT*kG*dT*k[5mC]; antisense) [Compound 1198951],YAP1 (% UTC),[11],81 % UTC
1198468 (antisense kT*kT*dA*dG*dA*dG*dT*dA*dT*dG*dT*eG*kG*e[5mC]*kA*eA) [Compound 1198468],YAP1 (% UTC),[10],22 % UTC
1197317 (kA*kG*kA*d[5mC]*mU*dA*dA*dG*dT*dA*dA*dG*dG*kT*kT*kT; antisense) [Compound 1197317],YAP1 (% UT),[8],78 % UT
1198795 (antisense kT*eA*kA*dG*dG*dT*dT*dT*d[5mC]*d[5mC]*d[5mC]*dA*eG*eA*kT*kT) [Compound 1198795],YAP1 (% UTC),[1],43 % UTC
1198338 (k[5mC]*kT*k[5mC]*dT*dT*dA*dT*dA*dT*dG*dG*dT*kT*eT*kT*eG; antisense) [Compound 1198338],YAP1 (% UT),[2],24 % UT
1198674 (antisense kA*kG*dA*dT*dT*dT*dA*dG*dG*dA*dT*dG*k[5mC]*eA*kT*eG) [Compound 1198674],YAP1 (% UTC),[9],21 % UTC
1198481 (antisense k[5mC]*kT*dT*dT*dT*dA*d[5mC]*dA*dT*dT*dA*eG*kG*eA*kA*e[5mC]) [Compound 1198481],YAP1 (% UTC),[10],72 % UTC
1198483 (antisense k[5mC]*kA*d[5mC]*dT*dT*dT*dT*dA*d[5mC]*dA*dT*eT*kA*eG*kG*eA) [Compound 1198483],YAP1 (% UTC),[10],31 % UTC
1198442 (kT*dA*dA*dA*dG*dT*dG*dT*dA*dT*dG*kT*e[5mC]*kA*eG*kA; antisense) [Compound 1198442],YAP1 (% UTC),[1],44 % UTC
1197299 (kA*kG*kG*dA*mU*dG*d[5mC]*dA*dT*dG*dG*dT*dT*kT*kT*kT; antisense) [Compound 1197299],YAP1 (% UT),[8],41 % UT
1198823 (kG*kG*dT*dA*dT*dA*dA*d[5mC]*dT*dG*dG*kG*e[5mC]*kA*eA*kA; antisense) [Compound 1198823],YAP1 (% UT),[3],65 % UT
1198609 (antisense kT*kT*kT*dA*dT*dG*dT*dA*dA*dT*dA*dT*kT*kG*k[5mC]*eA) [Compound 1198609],YAP1 (% UT),"Table 50, Yap1 mRNA remaining as percent of untreated control (UT), SNU-449 cells, single dose",52 % UT
1197203 (antisense kA*kA*k[5mC]*dT*d[5mC]*dT*dT*dA*dT*dA*dT*dG*dG*kT*kT*kT) [Compound 1197203],YAP1 (% UT),[4],68 % UT
1197207 (antisense kA*kA*kT*dA*dT*dT*dG*d[5mC]*dA*dA*dT*d[5mC]*dT*kG*kT*k[5mC]) [Compound 1197207],YAP1 (% UT),[7],51 % UT
1095622 (antisense k[5mC]*kT*dG*dA*dG*dG*dT*dA*dT*dA*dA*e[5mC]*kT*eG*kG*eG) [Compound 1095622],YAP1 (% UTC),[6],44 % UTC
1198734 (kA*eG*kG*dT*dA*dT*dA*dA*d[5mC]*dT*dG*dG*eG*e[5mC]*kA*kA; antisense) [Compound 1198734],YAP1 (% UTC),[9],29 % UTC
1198945 (kA*k[5mC]*dT*d[5mC]*dT*dT*dA*dT*dA*dT*dG*kG*dT*kT*dT*kT; antisense) [Compound 1198945],YAP1 (% UTC),[11],48 % UTC
1197178 (antisense kA*kA*kT*dT*dG*dT*d[5mC]*dT*d[5mC]*dA*dT*dG*d[5mC]*k[5mC]*kT*kT) [Compound 1197178],YAP1 (% UT),[7],12 % UT
1198739 (k[5mC]*eA*k[5mC]*dT*dG*dA*dG*dG*dT*dA*dT*dA*eA*e[5mC]*kT*kG; antisense) [Compound 1198739],YAP1 (% UTC),[9],94 % UTC
1198285 (kA*kT*kT*dG*dT*d[5mC]*dT*d[5mC]*dA*dT*dG*d[5mC]*k[5mC]*eT*kT*eA; antisense) [Compound 1198285],YAP1 (% UT),[4],13 % UT
1198754 (kG*e[5mC]*kT*dT*dT*dG*dG*dA*dA*dG*dA*dT*e[5mC]*eT*kG*kA; antisense) [Compound 1198754],YAP1 (% UTC),[1],23 % UTC
1198645 (kT*k[5mC]*dT*dA*dT*dA*dT*dT*dA*dG*dA*dG*kT*eA*kT*eG; antisense) [Compound 1198645],YAP1 (% UTC),[9],73 % UTC
1200803 (kG*kG*kT*dA*dT*mA*dA*d[5mC]*dT*dG*dG*dG*d[5mC]*kA*kA*kA; antisense) [Compound 1200803],YAP1 (% UT),[5],22 % UT
1198399 (kA*dG*d[5mC]*dA*d[5mC]*dT*dT*dT*dT*dA*d[5mC]*kA*eT*kT*eA*kG; antisense) [Compound 1198399],YAP1 (% UTC),[12],35 % UTC
1198420 (kA*dT*dA*dT*dG*dG*dT*dT*dT*dT*dG*kT*eG*kT*eG*kT; antisense) [Compound 1198420],YAP1 (% UTC),[12],41 % UTC
1198280 (kA*k[5mC]*dT*dA*dA*dG*dT*dA*dA*dG*dG*eT*eT*eT*k[5mC]*k[5mC]; antisense) [Compound 1198280],YAP1 (% UTC),[10],40 % UTC

# Reference: US11214803B2, “Modulators of YAP1 expression” (Ionis Pharmaceuticals, Inc., priority 2019, dated 2022)
